Data from patent publication US8633154B2, “Cyclodepsipeptides with antineoplastic activity and methods of using to inhibit cancer and microbial growth” (Arizona Board of Regents, a body corporate of the State of …, priority 2007, dated 2014).
Values after ≈ are worked out from the molar mass of the structure shown.

How the values were obtained:
Format in all cases: cell-based
NCI-H460 = test: Human cancer cell line growth inhibition, NCI-H460
[1] = system: Cryptococcus neoformans ATCC 90112; test: Broth microdilution susceptibility assay, Cryptococcus neoformans
Text: (§1) Cyclodepsipeptides 1 and 2 were screened against the bacteria Stenotrophomonas maltophilia ATCC 13637, Micrococcus luteus Presque Isle 456, Staphylococcus aureus ATCC 29213, Escherichia coli ATCC 25922, Enterobacter cloacae ATCC 13047, Enterococcus faecalis ATCC 29212, Streptococcus pneumoniae ATCC 6303, Neisseria gonorrhoeae ATCC 49226, and the fungi Candida albicans ATCC 90028 and Cryptococcus neoformans ATCC 90112, according to established broth microdilution susceptibility assays.^15,16 Owing to a paucity of material, compound 2 was tested against S. maltophilia, M. luteus, S. aureus, E. coli and C. albicans only. Compounds were reconstituted in a small volume of sterile DMSO and diluted in the appropriate media immediately prior to susceptibility experiments. The minimum inhibitory concentration was defined as the lowest concentration of compound that inhibited all visible growth of the test organism (optically clear). Assays were repeated on separate days.

MCF-7 = test: Human cancer cell line growth inhibition, MCF-7
SF268 = test: Human cancer cell line growth inhibition, SF268
BXPC-3 = test: Human cancer cell line growth inhibition, BXPC-3
KM20L2 = test: Human cancer cell line growth inhibition, KM20L2
DU-145 = test: Human cancer cell line growth inhibition, DU-145
[2] = system: Micrococcus luteus Presque Isle 456; test: Broth microdilution susceptibility assay, Micrococcus luteus
Text: as §1

[3] = system: Enterococcus faecalis ATCC 29212; test: Broth microdilution susceptibility assay, Enterococcus faecalis; conditions: ATCC29212, read-out: minimum inhibitory concentration [MIC]
Text: as §1

Row | minimum inhibitory concentration [MIC] [2] [ng/mL] | Structure (SMILES) | Inhibition of Human Cancer Cell Lines (GI50) NCI-H460 (NCI-H460) [ng/mL] | minimum inhibitory concentration [MIC] ([1]; broth microdilution) [ng/mL] | Inhibition of Human Cancer Cell Lines (GI50) MCF-7 (MCF-7) [ng/mL] | Inhibition of Human Cancer Cell Lines (GI50) SF268 (SF268) [ng/mL] | Inhibition of Human Cancer Cell Lines (GI50) BXPC-3 (BXPC-3) [ng/mL] | Inhibition of Human Cancer Cell Lines (GI50) KM20L2 (KM20L2) [ng/mL] | Inhibition of Human Cancer Cell Lines (GI50) DU-145 (DU-145) [ng/mL] | GI50 (NCI-H460; Homo sapiens, read-out: Inhibition of Human Cancer Cell Lines (GI50) NCI-H460) [ng/mL] | MIC [3] [ng/mL] | MIC ([1]; ATCC90112, read-out: minimum inhibitory concentration [MIC]) [ng/mL] | GI50 (MCF-7; Homo sapiens, MCF7, read-out: Inhibition of Human Cancer Cell Lines (GI50) MCF-7) [ng/mL] | GI50 (SF268; Homo sapiens, SF-268, read-out: Inhibition of Human Cancer Cell Lines (GI50) SF268) [ng/mL] | GI50 (BXPC-3; Homo sapiens, read-out: Inhibition of Human Cancer Cell Lines (GI50) BXPC-3) [ng/mL] | GI50 (KM20L2; Homo sapiens, KM-20L2, read-out: Inhibition of Human Cancer Cell Lines (GI50) KM20L2) [ng/mL] | GI50 (DU-145; Homo sapiens, read-out: Inhibition of Human Cancer Cell Lines (GI50) DU-145) [ng/mL]
1 |  | CCC(C)[C@@H]1OC(=O)[C@H](C)OC(=O)[C@@H](NC(=O)c2cccc(NC=O)c2O)[C@@H](C)OC(=O)[C@H](CC(C)C)OC(=O)C(C)(C)C(=O)[C@H](CC(C)C)NC1=O (stereo partly shown) [Cyclodepsipeptide 1, respirantin] | 0.6 | 2000 (≈ 2670 nM) | 0.6 | 1.6 | 470 | 0.6 | 0.18 |  |  |  |  |  |  |  | 
2 | 64000 (≈ 87200 nM) | CC[C@H](C)[C@@H]1OC(=O)[C@H](C)OC(=O)[C@@H](NC(=O)c2cccc(NC=O)c2O)[C@@H](C)OC(=O)[C@H](C(C)C)OC(=O)C(C)(C)C(=O)[C@H](CC(C)C)NC1=O [Cyclodepsipeptide 2] | 0.63 |  | 0.62 | 16 | 1200 | 0.58 | <0.1 |  |  |  |  |  |  |  | 
3 |  | CCC(C)[C@@H]1OC(=O)[C@H](C)OC(=O)[C@@H](NC(=O)c2cccc(N)c2O)[C@@H](C)OC(=O)[C@H](CC(C)C)OC(=O)C(C)(C)C(=O)[C@H](CC(C)C)NC1=O (stereo partly shown) [Cyclodepsipeptide 3, Kitastatin 1] |  |  |  |  |  |  |  | < 1 | 64000 (≈ 88900 nM) | 64000 (≈ 88900 nM) | 4 (≈ 5.56 nM) | 3.5 (≈ 4.86 nM) | 6.6 (≈ 9.17 nM) | 2.4 (≈ 3.33 nM) | 2.6 (≈ 3.61 nM)
